From US7612064B2, “Sulfopyrroles” (Takeda Pharmaceutical Company Limited, priority 2003, dated 2009)
pIC50: −log10 of the molar value.

Columns and labels:
HeLa = test: MTS proliferation assay; type: cell-based, human; conditions: 72 h
Method in brief: (§1)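 Proliferation is assessed by MTS conversion, measured as 492 nm absorption. Cells are treated for three days (72 h) with four compound concentrations between 0.3 and 10 μM.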

Jurkat = test: MTS proliferation assay; type: cell-based, human; conditions: 72 h
Method in brief: as §1

MRC5 = test: MTS proliferation assay; type: cell-based; conditions: MRC5, 72 h
Method in brief: as §1

[1] = Hoechst 33342 nuclear staining; type: cell-based; conditions: for Hoechst 33342 nuclear staining score, H460: H460 cells; for Hoechst 33342 nuclear staining score, HeLa: HeLa cells; for Hoechst 33342 nuclear staining score, Jily: Jily cells; for Hoechst 33342 nuclear staining score, Jurkat: Jurkat cells; for Hoechst 33342 nuclear staining score, MRC5: MRC5 cells;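 on all read-outs here: apoptotic nuclei scored 0 none 1 weak under 50% of cells 2 strong over 50% of cells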
Method in brief: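 After a further 30 min incubation, plates were inspected on a standard inverted fluorescence microscope. The fraction of apoptotic nuclei and other apoptosis-specific morphology were scored as 0 for no activity, 1 for weak activity in less than 50% of the cells, and 2 for strong activity in more than 50% of the cells.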

| SMILES | pIC50 (HeLa) | pIC50 (Jurkat) | pIC50 (MRC5) | Hoechst 33342 nuclear staining score, H460 ([1]; conc 0.1) | Hoechst 33342 nuclear staining score, H460 ([1]; conc 0.3) | Hoechst 33342 nuclear staining score, H460 ([1]; conc 1) | Hoechst 33342 nuclear staining score, H460 ([1]; conc 3) | Hoechst 33342 nuclear staining score, HeLa ([1]; conc 0.1) | Hoechst 33342 nuclear staining score, HeLa ([1]; conc 0.3) | Hoechst 33342 nuclear staining score, HeLa ([1]; conc 1) | Hoechst 33342 nuclear staining score, HeLa ([1]; conc 3) | Hoechst 33342 nuclear staining score, Jily ([1]; conc 0.1) | Hoechst 33342 nuclear staining score, Jily ([1]; conc 0.3) | Hoechst 33342 nuclear staining score, Jily ([1]; conc 1) | Hoechst 33342 nuclear staining score, Jily ([1]; conc 3) | Hoechst 33342 nuclear staining score, Jurkat ([1]; conc 0.1) | Hoechst 33342 nuclear staining score, Jurkat ([1]; conc 0.3) | Hoechst 33342 nuclear staining score, Jurkat ([1]; conc 1) | Hoechst 33342 nuclear staining score, Jurkat ([1]; conc 3) | Hoechst 33342 nuclear staining score, MRC5 ([1]; conc 0.1) | further results |
| --- | --- | --- | --- | --- | --- | --- | --- | --- | --- | --- | --- | --- | --- | --- | --- | --- | --- | --- | --- | --- | --- |
| COc1cc(-c2cc(CNc3ccc4[nH]nnc4c3)cn2S(=O)(=O)c2ccc(C)cc2)cc(OC)c1OC [Example 69] | < 6.00 | > 6.00 | < 6.00 | 0 | 0 | 0 | 2 (strong activity comprising more than 50% of the cells) | 0 | 0 | 0 | 2 (strong activity comprising more than 50% of the cells) | 0 | 0 | 1 (weak activity comprising less than 50% of the cells) | 2 (strong activity comprising more than 50% of the cells) | 0 | 0 | 2 (strong activity comprising more than 50% of the cells) | 2 (strong activity comprising more than 50% of the cells) | 0 | Hoechst 33342 nuclear staining score, MRC5 ([1]; conc 0.3): 0; Hoechst 33342 nuclear staining score, MRC5 ([1]; conc 1): 0; Hoechst 33342 nuclear staining score, MRC5 ([1]; conc 3): 2 (strong activity comprising more than 50% of the cells); Hoechst 33342 nuclear staining score, PBLs ([1]; conc 0.1): 0; Hoechst 33342 nuclear staining score, PBLs ([1]; conc 0.3): 0; Hoechst 33342 nuclear staining score, PBLs ([1]; conc 1): 0; Hoechst 33342 nuclear staining score, PBLs ([1]; conc 3): 0 |
| COc1cc(-c2cc(CNc3ccc(S(N)(=O)=O)cc3)cn2S(=O)(=O)c2ccc(C)cc2)cc(OC)c1OC [Example 70] | < 6.00 | > 6.00 | < 6.00 | 0 | 0 | 0 | 2 (strong activity comprising more than 50% of the cells) | 0 | 0 | 0 | 0 | 0 | 0 | 0 | 2 (strong activity comprising more than 50% of the cells) | 0 | 0 | 2 (strong activity comprising more than 50% of the cells) | 2 (strong activity comprising more than 50% of the cells) | 0 | Hoechst 33342 nuclear staining score, MRC5 ([1]; conc 0.3): 0; Hoechst 33342 nuclear staining score, MRC5 ([1]; conc 1): 0; Hoechst 33342 nuclear staining score, MRC5 ([1]; conc 3): 2 (strong activity comprising more than 50% of the cells); Hoechst 33342 nuclear staining score, PBLs ([1]; conc 0.1): 0; Hoechst 33342 nuclear staining score, PBLs ([1]; conc 0.3): 0; Hoechst 33342 nuclear staining score, PBLs ([1]; conc 1): 0; Hoechst 33342 nuclear staining score, PBLs ([1]; conc 3): 0 |

Continued, in another order:

| pIC50 (HeLa) | pIC50 (Jurkat) | SMILES | pIC50 (MRC5) | Hoechst 33342 nuclear staining score, H460 ([1]; conc 0.1) | Hoechst 33342 nuclear staining score, H460 ([1]; conc 0.3) | Hoechst 33342 nuclear staining score, H460 ([1]; conc 1) | Hoechst 33342 nuclear staining score, H460 ([1]; conc 3) | Hoechst 33342 nuclear staining score, HeLa ([1]; conc 0.1) | Hoechst 33342 nuclear staining score, HeLa ([1]; conc 0.3) | Hoechst 33342 nuclear staining score, HeLa ([1]; conc 1) | Hoechst 33342 nuclear staining score, HeLa ([1]; conc 3) | Hoechst 33342 nuclear staining score, Jily ([1]; conc 0.1) | Hoechst 33342 nuclear staining score, Jily ([1]; conc 0.3) | Hoechst 33342 nuclear staining score, Jily ([1]; conc 1) | Hoechst 33342 nuclear staining score, Jily ([1]; conc 3) | Hoechst 33342 nuclear staining score, Jurkat ([1]; conc 0.1) | Hoechst 33342 nuclear staining score, Jurkat ([1]; conc 0.3) | Hoechst 33342 nuclear staining score, Jurkat ([1]; conc 1) | Hoechst 33342 nuclear staining score, Jurkat ([1]; conc 3) | Hoechst 33342 nuclear staining score, MRC5 ([1]; conc 0.1) | further results |
| --- | --- | --- | --- | --- | --- | --- | --- | --- | --- | --- | --- | --- | --- | --- | --- | --- | --- | --- | --- | --- | --- |
| > 6.00 | > 6.00 | COc1cc(-c2cc(CNc3ccc(-n4cncn4)cc3)cn2S(=O)(=O)c2ccc(C)cc2)cc(OC)c1OC [Example 68] | < 6.00 | 0 | 0 | 2 (strong activity comprising more than 50% of the cells) | 2 (strong activity comprising more than 50% of the cells) | 0 | 0 | 0 | 2 (strong activity comprising more than 50% of the cells) | 0 | 0 | 2 (strong activity comprising more than 50% of the cells) | 2 (strong activity comprising more than 50% of the cells) | 0 | 0 | 2 (strong activity comprising more than 50% of the cells) | 2 (strong activity comprising more than 50% of the cells) | 0 | Hoechst 33342 nuclear staining score, MRC5 ([1]; conc 0.3): 0; Hoechst 33342 nuclear staining score, MRC5 ([1]; conc 1): 0; Hoechst 33342 nuclear staining score, MRC5 ([1]; conc 3): 2 (strong activity comprising more than 50% of the cells); Hoechst 33342 nuclear staining score, PBLs ([1]; conc 0.1): 0; Hoechst 33342 nuclear staining score, PBLs ([1]; conc 0.3): 0; Hoechst 33342 nuclear staining score, PBLs ([1]; conc 1): 0; Hoechst 33342 nuclear staining score, PBLs ([1]; conc 3): 0 |
| > 6.00 | > 6.00 | COc1cc(-c2cc(CNc3ccc(N4CCOCC4)cc3)cn2S(=O)(=O)c2ccc(C)cc2)cc(OC)c1OC [Example 71] | > 6.00 | 0 | 0 | 2 (strong activity comprising more than 50% of the cells) | 2 (strong activity comprising more than 50% of the cells) | 0 | 0 | 2 (strong activity comprising more than 50% of the cells) | 2 (strong activity comprising more than 50% of the cells) | 0 | 0 | 2 (strong activity comprising more than 50% of the cells) | 2 (strong activity comprising more than 50% of the cells) | 0 | 2 (strong activity comprising more than 50% of the cells) | 2 (strong activity comprising more than 50% of the cells) | 2 (strong activity comprising more than 50% of the cells) | 0 | Hoechst 33342 nuclear staining score, MRC5 ([1]; conc 0.3): 0; Hoechst 33342 nuclear staining score, MRC5 ([1]; conc 1): 2 (strong activity comprising more than 50% of the cells); Hoechst 33342 nuclear staining score, MRC5 ([1]; conc 3): 2 (strong activity comprising more than 50% of the cells); Hoechst 33342 nuclear staining score, PBLs ([1]; conc 0.1): 0; Hoechst 33342 nuclear staining score, PBLs ([1]; conc 0.3): 0; Hoechst 33342 nuclear staining score, PBLs ([1]; conc 1): 0; Hoechst 33342 nuclear staining score, PBLs ([1]; conc 3): 0 |
| < 6.00 | < 6.00 | O=S(=O)(c1cccc(Cl)c1)n1cc(CNc2ccc(-n3ccnc3)cc2)cc1-c1ccc2c(c1)OCO2 [Example 74] | < 6.00 | 0 | 0 | 0 | 0 | 0 | 0 | 0 | 0 | 0 | 0 | 0 | 0 | 0 | 0 | 0 | 0 | 0 | Hoechst 33342 nuclear staining score, MRC5 ([1]; conc 0.3): 0; Hoechst 33342 nuclear staining score, MRC5 ([1]; conc 1): 0; Hoechst 33342 nuclear staining score, MRC5 ([1]; conc 3): 0; Hoechst 33342 nuclear staining score, PBLs ([1]; conc 0.1): 0; Hoechst 33342 nuclear staining score, PBLs ([1]; conc 0.3): 0; Hoechst 33342 nuclear staining score, PBLs ([1]; conc 1): 0; Hoechst 33342 nuclear staining score, PBLs ([1]; conc 3): 0 |
